Experimental data as given in ChEMBL document CHEMBL4339204, “Synthesis of α-methylstilbenes using an aqueous Wittig methodology and application toward the development of potent human aromatase inhibitors” (Bioorg Med Chem Lett, 2019).

Each compound was assayed against T1, Aromatase (Homo sapiens, UniProt P11511).
T1 sequence (P11511 whole entry): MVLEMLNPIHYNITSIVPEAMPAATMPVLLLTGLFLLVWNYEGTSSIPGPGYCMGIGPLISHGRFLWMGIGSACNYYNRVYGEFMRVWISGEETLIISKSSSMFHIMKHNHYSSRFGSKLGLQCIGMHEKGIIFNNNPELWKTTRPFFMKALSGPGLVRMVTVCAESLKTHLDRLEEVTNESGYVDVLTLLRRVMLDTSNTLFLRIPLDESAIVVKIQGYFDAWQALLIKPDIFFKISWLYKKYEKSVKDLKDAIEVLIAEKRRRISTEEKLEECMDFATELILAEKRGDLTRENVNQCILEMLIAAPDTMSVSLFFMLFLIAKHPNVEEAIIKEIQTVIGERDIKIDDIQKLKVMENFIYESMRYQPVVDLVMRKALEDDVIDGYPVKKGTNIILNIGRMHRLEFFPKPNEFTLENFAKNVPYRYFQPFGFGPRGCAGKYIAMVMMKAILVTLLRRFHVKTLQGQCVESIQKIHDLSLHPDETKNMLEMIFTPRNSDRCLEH
Description: Inhibition of recombinant human CYP19A1 using DBF as substrate measured after 1 hr by fluorescence assay

Row | Compound | Ki
1 | Brc1ccc(/C=C(\Cn2ccnn2)c2ccc(Br)cc2)cc1 | 24 nM
2 | Brc1ccc(/C=C(/Cn2ccnn2)c2ccc(Br)cc2)cc1 | 450 nM
3 | Brc1ccc(/C(=C/c2ccccc2)Cn2ccnn2)cc1 | 74 nM
4 | C(=C(\Cn1cncn1)c1ccccc1)/c1ccccc1 | 79 nM
5 | C(=C(/Cn1cncn1)c1ccccc1)/c1ccccc1 | 32 nM
6 | Brc1ccc(/C(=C\c2ccccc2)Cn2ccnn2)cc1 | 125 nM
7 | c1ccc(CC(Cn2ccnn2)c2ccccc2)cc1 (stereo unspecified) | 290 nM

The remaining lines, values ahead:

Row | Ki | Compound
8 | 8 nM | Clc1ccc(/C=C(\Cn2ccnn2)c2ccc(Cl)cc2)cc1
9 | 97 nM | Clc1ccc(/C=C(/Cn2ccnn2)c2ccc(Cl)cc2)cc1
10 | 81 nM | Clc1ccc(/C(=C\c2ccccc2)Cn2ccnn2)cc1
11 | 57 nM | Clc1ccc(/C(=C/c2ccccc2)Cn2ccnn2)cc1
